Key:
human M2 receptor [1] = target: T1, human M2 receptor (Homo sapiens, UniProt P08172); test: Functional M2-GIRK1/4 activation test: allosteric potency (EC50) and efficiency at EC20 acetylcholine; type: cell-based; settings: CHO-DUKX-M2-GIRK cells; for EC50: voltage-sensitive dye, acetylcholine at EC20, in some cases mean of two or more determinations; for Efficiency / Emax: boosting of the acetylcholine effect at EC20 acetylcholine concentration
T1 construct: expressed in transfected cells; host or cells: CHO-DUKX (CHO-DUKX-M2-GIRK)
T1 sequence (P08172 1-466): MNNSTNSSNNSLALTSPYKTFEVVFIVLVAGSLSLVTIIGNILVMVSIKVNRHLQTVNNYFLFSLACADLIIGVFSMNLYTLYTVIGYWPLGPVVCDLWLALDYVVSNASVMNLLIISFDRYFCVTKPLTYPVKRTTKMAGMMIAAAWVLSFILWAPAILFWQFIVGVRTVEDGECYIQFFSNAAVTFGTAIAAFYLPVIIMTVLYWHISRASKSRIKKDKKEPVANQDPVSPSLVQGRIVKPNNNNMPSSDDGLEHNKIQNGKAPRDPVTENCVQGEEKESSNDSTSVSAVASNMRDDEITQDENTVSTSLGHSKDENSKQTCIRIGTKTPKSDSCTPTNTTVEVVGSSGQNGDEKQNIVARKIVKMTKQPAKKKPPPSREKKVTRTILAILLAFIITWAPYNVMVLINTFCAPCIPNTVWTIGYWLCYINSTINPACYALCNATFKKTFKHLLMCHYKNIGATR
Outline: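 CHO-DUKX cells stably expressing human M2 and GIRK1/4; membrane potential tracked with voltage-sensitive dye at room temperature. Compound added 50 s before acetylcholine at its EC20, then hyperpolarization read 60 s. EC50 (allosteric potency) and efficiency (boost of EC20 ACh effect) from 4-parameter Hill fit.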

human M2 receptor [2] = target: T1, human M2 receptor; test: Functional M2-GIRK1/4 activation test: positive cooperativity (α factor), shift of acetylcholine dose-response curve; type: cell-based; settings: Allosteric EC50 shift of acetylcholine 8-point dose-response curve; CHO-DUKX-M2-GIRK cells; α>1 = positive cooperativity
Source text: The binding of orthosteric agonists (endogenous ligand: acetylcholine) to the M2 receptor leads to receptor activation or a change in conformation of the receptor in the manner of a shift in equilibrium in favour of the active receptor conformation.
The agonist-induced change in conformation of the M2 receptor results in a Gαi protein activation. […] Under physiological conditions, the result is then a selective efflux of potassium from the cell along the electrochemical gradient. […] The extent of hyperpolarization can therefore be regarded as a measure of the activation of the M2 receptor.
The test cell used is a recombinant CHO-DUKX cell line which has been stably transfected with cDNA coding for the human M2 receptor and with cDNA coding for both GIRK1/4 subunits (CHO-DUKX-M2-GIRK). The transmembrane potential, or the relative changes in the transmembrane potential as a function of substance addition or M2 activation, is determined by means of a voltage-sensitive dye (FLIPR Membrane Potential Assay Kit Blue, Molecular Devices #R8034) and the measurement of cell fluorescence using a proprietary fluorescence imaging instrument.
In accordance with the desired test concentrations, the substances were pre-diluted in loading buffer (see above).
The sowing medium consisted of MEM alpha medium (supplemented with 5% PCS, 2% Glutamax, no genticin).
For the particular measurement, the medium was removed and the cells were laden with the volt-age-sensitive dye for at least 6 min at room temperature (30 μl of loading buffer per 384-well). This was followed, in a first measurement, by the determination of the resting transmembrane potential for a period of 5 sec in 1 sec increments. Thereafter, 10 μl in each case of the test substances diluted in loading buffer are added, followed by a second measurement to determine the transmembrane potential for a period of 50 sec in 1 sec increments.
Finally, the cells are admixed with 10 μl of agonist solution (acetylcholine dissolved in loading buffer). In contrast to the EC50 determination of the test substances (see B-1.1), however, this is not done using one acetylcholine concentration; instead, every concentration of the test substance is combined with an acetylcholine 8-point dose-response curve. […] The M2-mediated GIRK1/4 activation or hyperpolarization is then monitored in a third measurement over a period of 60 sec in 1 sec increments. The shift in the acetylcholine dose-response curve in the presence of increasing concentrations of the test substance is analysed and quantified by means of GraphPad PRISM (Allosteric EC50 shift). […] Positive cooperativity is the hallmark of a positive allosteric modulator. […] The greater the magnitude of the α value, the greater the extent of cooperativity between orthosteric and allosteric.

Compound	EC50 (human M2 receptor [1]) [nM]	Efficiency (human M2 receptor [1]) [%]	Cooperativity (alpha factor) (human M2 receptor [2])	Emax (human M2 receptor [1]) [%]
CC(NC(=O)c1cn(-c2c(F)cc(F)cc2F)c2nc(N3CC(CO)(CO)C3)c(F)cc2c1=O)C(F)(F)C(F)(F)F (racemic) [Example 170, 7-[3,3-Bis(hydroxymethyl)azetidin-1-yl]-6-fluoro-4-oxo-N-[3,3,4,4,4-pentafluorobutan-2-yl]-1-(2,4,6-trifluorophenyl)-1,4-dihydro-1,8-naphthyridine-3-carboxamide]	8.1	100	38	
C[C@H](NC(=O)c1cn(-c2c(F)cc(F)cc2Cl)c2nc(N3C[C@@H](O)[C@H](O)C3)c(F)cc2c1=O)C(F)(F)F (single isomer, unassigned) [Example 226]	6.7	93	31	
O=C(N[C@@H](C1CC1)C(F)(F)F)c1cn(-c2c(F)cc(F)cc2F)c2nc(N3CC(O)C3)c(F)cc2c1=O [Example 54, N-[(1S)-1-Cyclopropyl-2,2,2-trifluoroethyl]-6-fluoro-7-(3-hydroxyazetidin-1-yl)-4-oxo-1-(2,4,6-trifluorophenyl)-1,4-dihydro-1,8-naphthyridine-3-carboxamide]	25		30	100
CC(C)[C@H](C)NC(=O)c1cn(-c2c(F)cc(F)cc2F)c2nc(N3C[C@@H](O)[C@H](O)C3)c(F)cc2c1=O [Example 16, 7-[(3R,4R)-3,4-dihydroxypyrrolidin-1-yl]-6-fluoro-N-[(2S)-3-methylbutan-2-yl]-4-oxo-1-(2,4,6-trifluorophenyl)-1,4-dihydro-1,8-naphthyridine-3-carboxamide]	8.45		42	99
CC(C)(C)NC(=O)c1cn(-c2c(F)cc(F)cc2F)c2nc(N3C[C@@H](O)[C@H](O)C3)c(F)cc2c1=O [Example 90, N-tert-Butyl-7-[(3R,4R)-3,4-dihydroxypyrrolidin-1-yl]-6-fluoro-4-oxo-1-(2,4,6-trifluoro-phenyl)-1,4-dihydro-1,8-naphthyridine-3-carboxamide]	18.5		30	95
CC(NC(=O)c1cn(-c2c(F)cc(F)cc2F)c2nc(N3C[C@@H](O)[C@H](O)C3)c(F)cc2c1=O)C(F)(F)C(F)(F)F (single isomer, unassigned) [Example 10]			70	
CC(NC(=O)c1cn(-c2c(F)cc(F)cc2F)c2nc(N3CCC(CO)(CO)CC3)c(F)cc2c1=O)C(F)(F)C(F)(F)F (single isomer, unassigned) [Example 187, 7-[4,4-bis(hydroxymethyl)piperidin-1-yl]-6-fluoro-4-oxo-N-(3,3,4,4,4-pentafluorobutan-2-yl)-1-(2,4,6-trifluorophenyl)-1,4-dihydro-1,8-naphthyridine-3-carboxamide]	9.9			90

Now from value to compound:

EC50 (human M2 receptor [1]) [nM]	Efficiency (human M2 receptor [1]) [%]	Cooperativity (alpha factor) (human M2 receptor [2])	Emax (human M2 receptor [1]) [%]	Compound
3.3	100	24		O=C(NC(C1CC1)C(F)(F)C(F)(F)F)c1cn(-c2c(F)cc(F)cc2F)c2nc(N3CC(CO)(CO)C3)c(F)cc2c1=O (single isomer, unassigned) [Example 207, 7-[3,3-bis(hydroxymethyl)azetidin-1-yl]-N-[1-cyclopropyl-2,2,3,3,3-pentafluoropropyl]-6-fluoro-4-oxo-1-(2,4,6-trifluorophenyl)-1,4-dihydro-1,8-naphthyridine-3-carboxamide]
4.2	94	26		O=C(N[C@@H](C1CC1)C(F)(F)F)c1cn(-c2c(F)cc(F)cc2Cl)c2nc(N3CC(CO)(CO)C3)c(F)cc2c1=O (single isomer, unassigned) [Example 71]
5.4		47	96	O=C(N[C@@H](C1CC1)C(F)(F)F)c1cn(-c2c(F)cc(F)cc2F)c2nc(N3CC[C@H](O)C3)c(F)cc2c1=O [Example 108, N-[(1S)-1-Cyclopropyl-2,2,2-trifluoroethyl]-6-fluoro-7-[(3S)-3-hydroxypyrrolidin-1-yl]-4-oxo-1-(2,4,6-trifluorophenyl)-1,4-dihydro-1,8-naphthyridine-3-carboxamide]
2		35	100	CC(NC(=O)c1cn(-c2c(F)cc(F)cc2F)c2nc(N3CC[C@H](O)C3)c(F)cc2c1=O)C(F)(F)C(F)(F)F (single isomer, unassigned) [Example 113]
4.4		31	100	CC(C)(NC(=O)c1cn(-c2c(F)cc(F)cc2F)c2nc(N3CC(CO)(CO)C3)c(F)cc2c1=O)C(F)(F)C(F)(F)F [Example 166, 7-[3,3-Bis(hydroxymethyl)azetidin-1-yl]-6-fluoro-4-oxo-N-(3,3,4,4,4-pentafluoro-2-methyl-butan-2-yl)-1-(2,4,6-trifluorophenyl)-1,4-dihydro-1,8-naphthyridine-3-carboxamide]
2		45	100	CC(C)(NC(=O)c1cn(-c2c(F)cc(F)cc2F)c2nc(N3C[C@@H](O)[C@H](O)C3)c(F)cc2c1=O)C(F)(F)C(F)(F)F [Example 164, 7-[(3R,4R)-3,4-Dihydroxypyrrolidin-1-yl]-6-fluoro-4-oxo-N-(3,3,4,4,4-pentafluoro-2-methyl-butan-2-yl)-1-(2,4,6-trifluorophenyl)-1,4-dihydro-1,8-naphthyridine-3-carboxamide]
4.75		44	100	CCC(C)(C)NC(=O)c1cn(-c2c(F)cc(F)cc2F)c2nc(N3C[C@@H](O)[C@H](O)C3)c(F)cc2c1=O [Example 89, 7-[(3R,4R)-3,4-dihydroxypyrrolidin-1-yl]-6-fluoro-N-(2-methylbutan-2-yl)-4-oxo-1-(2,4,6-tri-fluorophenyl)-1,4-dihydro-1,8-naphthyridine-3-carboxamide]
6.17		58	94	CC[C@H](NC(=O)c1cn(-c2c(F)cc(F)cc2F)c2nc(N3C[C@@H](O)[C@H](O)C3)c(F)cc2c1=O)C(F)(F)F [Example 6, 7-[(3R,4R)-3,4-Dihydroxypyrrolidin-1-yl]-6-fluoro-4-oxo-N-[(2S)-1,1,1-trifluorobutan-2-yl]-1-(2,4,6-trifluorophenyl)-1,4-dihydro-1,8-naphthyridine-3-carboxamide]
1.35		57	100	CC(C)C(NC(=O)c1cn(-c2c(F)cc(F)cc2F)c2nc(N3C[C@@H](O)[C@H](O)C3)c(F)cc2c1=O)C(C)C [Example 24, 7-[(3R,4R)-3,4-dihydroxypyrrolidin-1-yl]-N-(2,4-dimethylpentan-3-yl)-6-fluoro-4-oxo-1-(2,4,6-trifluorophenyl)-1,4-dihydro-1,8-naphthyridine-3-carboxamide]
2.4		48	100	CC(C)(C)C(C)(C)NC(=O)c1cn(-c2c(F)cc(F)cc2F)c2nc(N3C[C@@H](O)[C@H](O)C3)c(F)cc2c1=O [Example 165, 7-[(3R,4R)-3,4-Dihydroxypyrrolidin-1-yl]-6-fluoro-4-oxo-1-(2,4,6-trifluorophenyl)-N-(2,3,3-trimethylbutan-2-yl)-1,4-dihydro-1,8-naphthyridine-3-carboxamide]

— US11472803B2, “7-substituted 1-aryl-naphthyridine-3-carboxylic acid amides and use thereof” (Bayer Aktiengesellschaft, priority 2016, dated 2022)
